According to PubChem BioAssay (NCI):
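All cell lines were grown in 96-well plates and treated with compound for 48 hours. The concentration for full growth arrest is given as TGI.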 *1 amine or outer side, *2 acyl side, *3 side chain or, on linkers, in order; H or OH if unused. Where a SMILES comes first, the peptide text is derived from it. Bridges are numbered along the chain shown (N, C = ends). [ ]: non-standard residue; d: D form. The star is where a group is joined. ξ: configuration not given here. X34 = O=C(C(CCCCNO[*:3])N[*:1])[*:2]; Fmoc = O=C(OCC1c2ccccc2-c2ccccc21)*; ξW = NC(Cc1c[nH]c2ccccc12)C(=O)O; ξP = O=C(O)C1CCCN1

Legend:
Assay in all cases: NCI tumour cell line growth inhibition, 48 h
SNB-75 CNS = test system: SNB-75 CNS
SF-268 CNS = test system: SF-268 CNS
HCC-2998 colon = test system: HCC-2998 colon
SF-539 CNS = test system: SF-539 CNS
TK-10 renal = test system: TK-10 renal
KM12 colon = test system: KM12 colon
SK-MEL-28 melanoma = test system: SK-MEL-28 melanoma
MDA-N = test system: MDA-N
HT29 colon = test system: HT29 colon
HL-60(TB) leukemia = test system: HL-60(TB) leukemia

Row | SMILES | TGI (SNB-75 CNS) [µM] | TGI (SF-268 CNS) [µM] | TGI (HCC-2998 colon) [µM] | TGI (SF-539 CNS) [µM] | TGI (TK-10 renal) [µM] | TGI (KM12 colon) [µM] | TGI (SK-MEL-28 melanoma) [µM] | TGI (MDA-N) [µM] | TGI (HT29 colon) [µM] | TGI (HL-60(TB) leukemia) [µM]
1 | S=C(N/N=C\C=N/NC(=S)N1CCCCC1)N1CCCCC1 | > 100 | > 100 | > 100 | > 100 | > 100 | > 100 | > 100 | > 100 | > 100 | –
2 | COC(=O)C(/C(=N/NC(N)=O)C(=O)Nc1ccc(C)cc1)c1nc2ccc([N+](=O)[O-])cc2[nH]c1=O (stereo not drawn) | > 100 | > 100 | > 100 | > 100 | > 100 | > 100 | > 100 | > 100 | > 100 | –
3 | OCC1CCCCCCCCCCC12SCCCS2 (stereo not drawn) | > 100 | > 100 | – | – | > 100 | > 100 | > 100 | > 100 | > 100 | > 100
4 | C/C(CCOC1CCCCO1)=C(\C)[Si](C)(C)C (stereo not drawn) | > 100 | > 100 | > 100 | > 100 | > 100 | > 100 | > 100 | – | > 100 | > 100
5 | CC1(C)CC(/C=C2/OC(=O)c3ccccc32)=C(C#N)C(=O)O1 | > 100 | > 100 | > 100 | > 100 | – | > 100 | > 100 | – | > 100 | –
6 | c1ccc2c(c1)OC(N1CCCC1)c1cnc(N3CCCC3)nc1-2 (stereo not drawn) | 57.1 | > 100 | – | > 100 | > 100 | > 100 | > 100 | – | > 100 | 66.5
7 | CCOC(=O)CNC(=O)C(CSCc1ccc(Br)cc1)NC(=O)CCC(N)C(=O)OCC (stereo not drawn) | > 50 | > 50 | > 50 | > 50 | – | > 50 | > 50 | > 50 | > 50 | –
8 | CC(CN1c2ccccc2Sc2ccccc21)N(C)C (stereo not drawn) | 15.2 | 33.5 | 37.5 | 34 | – | 37.6 | 32.5 | – | 30.8 | 39.9
9 | COCCOCOc1ccc(OCc2ccccc2)cc1 | > 41.1 | > 100 | > 100 | > 100 | – | > 100 | > 100 | – | > 100 | > 100
10 | CSc1nc(Cl)c2c(n1)Sc1nc3cc4c(cc3n1C2O)OCCO4 (stereo not drawn) | 36.4 | 80.3 | 12.1 | 0.0867 | 32.9 | > 100 | 21.7 | – | 18.9 | –
11 | Nc1cc(CO)cc(Nc2nc3ccc(Cl)cc3c3[nH]c4ccccc4c23)c1 | – | 10.5 | – | 14.1 | 21.3 | 18.6 | – | 21.1 | 11.7 | 52.7
12 | OCc1ccc2[n+](c1)CCC1c3ccccc3NC21 (stereo not drawn) | – | > 300 | > 300 | > 300 | > 300 | > 300 | > 300 | – | > 300 | > 300
13 | NC(=O)CNC(=O)C1CCCN1C(=O)C1CCCCNOC(=O)CC[C@@H](NC(=O)OCC2c3ccccc3-c3ccccc32)C(=O)NC(Cc2c[nH]c3ccccc23)C(=O)N1 (stereo partly drawn) (Fmoc-[dE][ξW][X34][ξP]G-NH2; ester 1-3) | > 100 | > 100 | > 100 | > 100 | > 100 | > 100 | > 100 | – | > 100 | > 100
14 | CN(C)CCCOc1nc2c(c(=O)n(C)c(=O)n2C)n1C (tested in a mixture with another compound) | > 100 | > 100 | – | 58.3 | 42.1 | > 100 | > 100 | – | > 100 | –
15 | COC(=O)C(CCC#N)(CCC#N)C(=O)OC | – | > 100 | > 100 | > 100 | – | > 100 | > 100 | – | > 100 | > 100
16 | CC(C)c1ccc2[nH]c(O)c(-c3[nH]c4ccccc4c3N=O)c2c1 | 26.3 | 20.4 | 16.1 | – | 43.4 | 15.6 | 26.7 | 19.2 | 15 | –
17 | CCOC(=O)C1Cc2[nH]c3ccccc3c2C(C)C1C (stereo not drawn) | 34.4 | 47.5 | – | 31.4 | 76 | 34.6 | 33.7 | – | – | –
18 | CC(C)Sc1nc(C#N)cc2c1CCCC2 | > 100 | > 100 | > 100 | > 100 | > 100 | > 100 | > 100 | > 100 | > 100 | –
